Test results as given in patent US20240150356A1, “Pyrimidine amide compounds and use thereof” (ALPHALA CO., LTD., priority 2019, published 2024).

What follows are compounds tested on Hep3B cells (hepatocellular carcinoma cell line) (assay: In vitro MTS cell viability assay (NCI-60 methodology), Hep3B). Conditions: Homo sapiens, 48 h, Table 1, MTS, 2 days drug incubation, 50% reduction vs time zero, read-out: Hep3B LC50.
Format: cell-based
In short: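 Hep3B cells given five 2-fold dilutions of compound for 2 days, with viability by MTS measured at time zero and at end. LC50 is the concentration giving a 50% fall in viable cells relative to the start of treatment, per NCI-60 formula.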

| SMILES | LC50 [nM] |
| --- | --- |
| CC(C)n1ncc2c(NC(=O)c3ccc([N+](=O)[O-])s3)nc(-c3ccc(C(F)(F)F)cc3)nc21 [Compound 1-24, N-(1-isopropyl-6-(4-(trifluoromethyl)phenyl)-1H-pyrazolo[3,4-d]pyrimidin-4-yl)-5-nitrothiophene-2-carboxamide] | 900 |
| Cn1ncc2c(NC(=O)c3ccc([N+](=O)[O-])s3)nc(-c3ccc(C(C)(C)C)cc3)nc21 [Compound 1-1, N-(6-(4-(tert-butyl)phenyl)-1-methyl-1H-pyrazolo[3,4-d]pyrimidin-4-yl)-5-nitrothiophene-2-carboxamide] | 1800 |

Same assay, conditions: Homo sapiens, 48 h, Table 4, MTS, 2 days drug incubation, 50% reduction vs time zero, read-out: Hep3B LC50

| SMILES | LC50 [nM] |
| --- | --- |
| Cc1csc2c(NC(=O)c3ccc([N+](=O)[O-])s3)nc(-c3ccc(C(F)(F)F)cc3F)nc12 [Compound 4-14, N-(2-(2-fluoro-4-(trifluoromethyl)phenyl)-7-methylthieno[3,2-d]pyrimidin-4-yl)-5-nitrothiophene-2-carboxamide] | 1350 |

Same assay, conditions: Homo sapiens, 48 h, Table 5, MTS, 2 days drug incubation, 50% reduction vs time zero, read-out: Hep3B LC50

| SMILES | LC50 [nM] |
| --- | --- |
| O=C(Nc1nc(-c2ccc(Cl)c(F)c2)nc2c1cnn2-c1ccccc1)c1ccc([N+](=O)[O-])s1 [Compound 5-46, N-(6-(4-chloro-3-fluorophenyl)-1-phenyl-1H-pyrazolo[3,4-d]pyrimidin-4-yl)-5-nitrothiophene-2-carboxamide] | 240 |
| O=C(Nc1nc(N2CCCC2)nc2c1cnn2-c1ccccc1)c1ccc([N+](=O)[O-])s1 [Compound 5-3, 5-nitro-N-(1-phenyl-6-(pyrrolidin-1-yl)-1H-pyrazolo[3,4-d]pyrimidin-4-yl)thiophene-2-carboxamide] | 4910 |

Same assay, conditions: Homo sapiens, 48 h, Table 6, MTS, 2 days drug incubation, 50% reduction vs time zero, read-out: Hep3B LC50

| SMILES | LC50 [nM] |
| --- | --- |
| O=C(Nc1nc(-c2cccc(F)c2)nc2c1cnn2-c1cccc(Cl)c1)c1ccc([N+](=O)[O-])s1 [Compound 6-34, N-(1-(3-chlorophenyl)-6-(3-fluorophenyl)-1H-pyrazolo[3,4-d]pyrimidin-4-yl)-5-nitrothiophene-2-carboxamide] | 190 |
| COCCOc1ccc(-c2nc(NC(=O)c3ccc([N+](=O)[O-])s3)c3cnn(-c4ccc(OC)cc4)c3n2)cn1 [Compound 6-26, N-(6-(6-(2-methoxyethoxy)pyridin-3-yl)-1-(4-methoxyphenyl)-1H-pyrazolo[3,4,d]pyrimidin-4-yl)-5-nitrothiophene-2-carboxamide] | 220 |
| O=C(Nc1nc(-n2ccc(C(F)(F)F)n2)nc2c1cnn2-c1ccc(F)cc1)c1ccc([N+](=O)[O-])s1 [Compound 6-109, N-(1-(4-fluorophenyl)-6-(3-(trifluoromethyl)-1H-pyrazol-1-yl)-1H-pyrazolo[3,4-d]pyrimidin-4-yl)-5-nitrothiophene-2-carboxamide] | 380 |
| CCOCCOCCOc1cc(C)c(-c2nc(NC(=O)c3ccc([N+](=O)[O-])s3)c3cnn(-c4ccc(F)cc4)c3n2)cn1 [Compound 6-139, N-(6-(6-(2-(2-ethoxyethoxy)ethoxy)-4-methylpyridin-3-yl)-1-(4-fluorophenyl)-1H-pyrazolo[3,4-d]pyrimidin-4-yl)-5-nitrothiophene-2-carboxamide] | 210 |
| COCCOc1ccc(-c2nc(NC(=O)c3ccc([N+](=O)[O-])s3)c3cnn(-c4cccc(F)c4)c3n2)cn1 [Compound 6-94, N-(1-(3-fluorophenyl)-6-(6-(2-methoxyethoxy)pyridin-3-yl)-1H-pyrazolo[3,4-d]pyrimidin-4-yl)-5-nitrothiophene-2-carboxamide] | 280 |
| COc1ccc(-n2ncc3c(NC(=O)c4ccc([N+](=O)[O-])s4)nc(-c4ccc(F)c(F)c4)nc32)cc1 [Compound 6-23, N-(6-(3,4-difluorophenyl)-1-(4-methoxyphenyl)-1H-pyrazolo[3,4-d]pyrimidin-4-yl)-5-nitrothiophene-2-carboxamide] | 170 |

Same assay, conditions: Homo sapiens, 48 h, Table 8, MTS, 2 days drug incubation, 50% reduction vs time zero, read-out: Hep3B LC50

| SMILES | LC50 [nM] |
| --- | --- |
| COC(=O)c1ccc(-c2nc(NC(=O)c3ccc([N+](=O)[O-])s3)c3cnn(C4CCCCCC4)c3n2)cc1 [Compound 8-12, methyl 4-(1-cycloheptyl-4-(5-nitrothiophene-2-carboxamido)-1H-pyrazolo[3,4-d]pyrimidin-6-yl)benzoate] | 470 |

Same assay, conditions: Homo sapiens, 48 h, Table 10, MTS, 2 days drug incubation, 50% reduction vs time zero, read-out: Hep3B LC50

| SMILES | LC50 [nM] |
| --- | --- |
| CC1CC(C)CC(n2ncc3c(NC(=O)c4ccc([N+](=O)[O-])s4)nc(-c4ccc(F)cc4)nc32)C1 (stereo not drawn) [Compound 10-67, N-(1-(3,5-dimethylcyclohexyl)-6-(4-fluorophenyl)-1H-pyrazolo[3,4-d]pyrimidin-4-yl)-5-nitrothiophene-2-carboxamide] | 650 |
| CC1(C)CCC(n2ncc3c(NC(=O)c4ccc([N+](=O)[O-])s4)nc(-c4ccc(Cl)nc4)nc32)CC1 [Compound 10-64, N-(6-(6-chloropyridin-3-yl)-1-(4,4-dimethylcyclohexyl)-1H-pyrazolo[3,4-d]pyrimidin-4-yl)-5-nitrothiophene-2-carboxamide] | 570 |
| COc1cncc(-c2nc(NC(=O)c3ccc([N+](=O)[O-])s3)c3cnn(C4CCCCC4)c3n2)c1 [Compound 10-22] | 1160 |
| CC1(C)CCC(n2ncc3c(NC(=O)c4ccc([N+](=O)[O-])s4)nc(-c4ccc(Cl)cc4)nc32)CC1 [Compound 10-63, N-(6(4-chlorophenyl)-1-(4,4-dimethylcyclohexyl)-1H-pyrazolo[3,4-d]pyrimidin-4-yl)-5-nitrothiophene-2-carboxamide] | 860 |
| O=C(Nc1nc(-c2ccc(Cl)cc2F)nc2c1cnn2C1CCCCC1)c1ccc([N+](=O)[O-])s1 [Compound 10-45, N-(6-(4-chloro-2-fluorophenyl)-1-cyclohexyl-1H-pyrazolo[3,4-d]pyrimidin-4-yl)-5-nitrothiophene-2-carboxamide] | 870 |
| O=C(Nc1nc(-c2ccc(C(F)(F)F)cc2)nc2c1cnn2C1CCCCC1)c1ccc([N+](=O)[O-])s1 [Compound 10-24, N-(1-cyclohexyl-6-(4-(trifluoromethyl)phenyl)-1H-pyrazolo[3,4-d]pyrimidin-4-yl)-5-nitrothiophene-2-carboxamide] | 640 |
| CC1(C)CCC(n2ncc3c(NC(=O)c4ccc([N+](=O)[O-])s4)nc(-c4ccc5c(c4)OCO5)nc32)CC1 [Compound 10-66, N-(6-(benzo[d][1,3]dioxol-5-yl)-1-(4,4-dimethylcyclohexyl)-1H-pyrazolo[3,4-d]pyrimidin-4-yl)-5-nitrothiophene-2-carboxamide] | 610 |
| Cc1ccc(-c2nc(NC(=O)c3ccc([N+](=O)[O-])s3)c3cnn(C4CCCCC4)c3n2)s1 [Compound 10-7, N-(1-cyclohexyl-6-(5-methylthiophen-2-yl)-1H-pyrazolo[3,4-d]pyrimidin-4-yl)-5-nitrothiophene-2-carboxamide] | 1530 |
| O=C(Nc1nc(-c2ccco2)nc2c1cnn2C1CCCCC1)c1ccc([N+](=O)[O-])s1 [Compound 10-4, N-(1-cyclohexyl-6-(furan-2-yl)-1H-pyrazolo[3,4-d]pyrimidin-4-yl)-5-nitrothiophene-2-carboxamide] | 1190 |
| O=C(Nc1nc(-c2ccc(F)cc2F)nc2c1cnn2C1CCCCC1)c1ccc([N+](=O)[O-])s1 [Compound 10-39] | 1240 |
| O=C(Nc1nc(-c2ccc(F)cc2Cl)nc2c1cnn2C1CCCCC1)c1ccc([N+](=O)[O-])s1 [Compound 10-46, N-(6-(2-chlor-4-fluorophenyl)-1-cyclohexyl-1H-pyrazolo[3,4-d]pyrimidin-4-yl)-5-nitrothiophene-2-carboxamide] | 1030 |
| O=C(Nc1nc(-c2ccnc(F)c2)nc2c1cnn2C1CCCCC1)c1ccc([N+](=O)[O-])s1 [Compound 10-15, N-(1-cyclohexyl-6-(2-fluoropyridin-4-yl)-1H-pyrazolo[3,4-d]pyrimidin-4-yl)-5-nitrothiophene-2-carboxamide] | 1170 |
